Entries after “also recorded” stand apart in the source; their conditions may differ. Where two headings read alike, the source gives them in different places. Each block holds one molecule with its values, some of them ahead of it.
Assays:
[1] = target: T1, Thrombin from human plasma (Homo sapiens, UniProt P00734); assay: SPR binding affinity measurement (Biacore T200, thrombin-immobilized CM5 chip)
T1 construct: Thrombin, a multifunctional serine protease generated by prothrombin cleavage; purchased Sigma-Aldrich Chemical Co. (St. Louis, MO, USA) T6884; host or cells: human plasma
Protocol: SPR binding studies were performed using a Biacore T200 biosensor system (GE Healthcare, Uppsala, Sweden).
Thrombin was diluted in 10 mM sodium acetate buffer at pH 5.0 and immobilized on a CM5 chip using an amine coupling kit. […] A total of 8419 RU of immobilized proteins was obtained. Sensor preparation and interaction analyses were performed at 25 °C in a PBS-P [10 mM phosphate buffer, 137 mM NaCl, 2.7 mM KCl, 0.05% P20 (pH 7.4)] running buffer containing 5% DMSO.
Solvent-correction procedures were included to compensate for any DMSO-related bulk refractive index variations. Reference flow cell without immobilized thrombin served as a non-specific binding control. Biacore traces were baseline subtracted and the signal was presented in sensorgrams and measured in RU. […] Equilibrium constants (KD) were calculated using the ‘affinity’ model in Biacore T200 evaluation software version 2.0.

thrombin [2] = target: T2, thrombin (Homo sapiens, UniProt P00734); assay: Thrombin inhibition assay (SensoLyte 520 FRET substrate kit); format: biochemical; settings: read-out: inhibition relative to the positive control
T2 construct: Thrombin, a multifunctional serine protease generated by prothrombin cleavage; purchased AnaSpec, Inc., San Jose, CA
Protocol: To evaluate the thrombin-inhibitory activity of the hits, a fluorescence assay utilizing a SensoLyte 520 Thrombin Activity Assay Kit (AnaSpec, Inc., San Jose, CA) was performed following the manufacturer’s instructions. This kit contained a novel 5-FAM/QXL 520 (fluorophore/quencher pair) FRET modified substrate (approximately 6 amino acids) that can be cleaved by thrombin at the Arg-Gly (R-G) site. The FRET substrate can be cleaved into two separate fragments, resulting in the release of 5-FAM fluorescence, which can be monitored at an excitation/emission = 490 nm/520 nm[37]. […]
Ten microlitres of compound solution (300 μM in assay buffer) and 40 μL thrombin solution (0.33 μg/ml in assay buffer) were sequentially added to each well of a black, flat- bottom, non-binding 96-well plate (Corning #3650, Corning, NY). […] After incubation, the fluorescence (excitation 490 nm, emission 520 nm) of each mixture was detected with a 2104 EnVision Multilabel Reader (PerkinElmer).
For enzymatic reaction, the thrombin solution treated with vehicle buffer alone was used as negative control. […] All fluorescence readings are taken into account in relative fluorescence units (RFU). The experimental data were analyzed by GraphPad Prism software (version 5, Graphpad Software Incorporation, USA).

[3] = target: T1, Thrombin from human plasma; assay: SPR competitive binding assay of BBR with argatroban (ABA method, Biacore S200); settings: 300 μM BBR; 30, 60 or 120 μM argatroban
Protocol: The response units were measured before the end of injection.

washed platelets = assay: Inhibition of thrombin-induced platelet aggregation (turbidimetric method); format: cell-based, rabbits; settings: BBR 0.83, 2.50 and 7.50 μM, 5 min at 37 °C, 0.5 U/ml thrombin
Protocol: PRP was obtained by centrifugation of collected blood at 190 g for 10 min. The platelets were isolated from PRP by centrifugation for 10 min at 650 g, resuspended and washed twice in Ca^2+-free Tyrode’s buffer (138 mM NaCl, 2.68 mM KCI, 11.9 mM NaHCO3, 0.36 mM NaH2PO4, 0.49 mM MgSO4, 5.5 mM glucose, pH7.5)[42]. Washed platelets were then resuspended in Tyrode’s buffer including 1.8 mM CaCl2 at a density of 2 × 10^7 platelets/ml.
Aggregation was initiated by the addition of 10 μL of thrombin (final concentrations of 0.5 U/ml). Aggregation was recorded at 37 °C for 5 min using a four-channel platelet aggregation analyser (LBY-NJ4, Beijing Precil Instrument Co., Ltd., China). Platelet aggregation inhibitory percentage was calculated using the following equation: Inhibitory percentage (%) = (1 − At/A0) × 100%. At is the platelet aggregation percentage of the test sample, and A0 is the platelet aggregation percentage of the control sample.

HEK293 cells = assay: Luciferase-coupled ATP quantitative assay (CellTiter-Glo cytotoxicity); format: cell-based; settings: incubation 24, 48 or 72 hours
Protocol: HEK293 cells were seeded at 5.0 × 10^3 per well into 96-well clear-bottom black plates and incubated in 5% CO2 at 37 °C overnight. […] Luminescence was determined with an Envision 2100 multilabel reader to detect viability following incubation with CellTiter-Glo reagent for 15 min.

thrombin [4] = target: T2, thrombin; design: method as in PMID 12646027, PMID 19674897, PMID 18674905, PMID 18289852, PMID 18052026; settings: training set for pharmacophore generation; cited from earlier work
[5] = Table 2, SPR, immobilized thrombin, read-out: KD

SMILES: O=C(O)c1cc(O)c(O)c(O)c1 [Gallic acid]
Kd [1]: > 200 µM

SMILES: CC1(C)CCC[C@](C)([C@H]2CC[C@]3(C)[C@@H]2[C@H](O)C[C@@H]2[C@@]4(C)CC[C@H](O)C(C)(C)[C@@H]4[C@@H](O)C[C@]23C)O1 [Panaxatriol]
Kd [1, 5]: > 200 µM

SMILES: NC1CCC(CNC(=O)C2CCCN2C(=O)C(N)C(c2ccccc2)c2ccccc2)CC1 (centres unmarked) [CHEMBL269744]
IC50 (thrombin [4]): 0.0001 µM

Second part, led by results:

inhibition at 30 µM (thrombin [2]): ≥ 50%
SMILES: COc1ccc2cc3[n+](cc2c1OC)CCc1cc2c(cc1-3)OCO2 [BBR, Berberine]
competitive binding with argatroban to thrombin [3]: could bind to the same argartroban/thrombin interaction site
effect on thrombin-induced platelet aggregation (washed platelets): had the ability to inhibit thrombin-induced platelet aggregation; also recorded: significantly prevented platelet aggregation
cytotoxicity (HEK293 cells): no significant cytotoxicity; also recorded: without cytotoxicity

Kd [1, 5]: > 200 µM
SMILES: O=C1c2ccccc2C(=O)c2c(O)c(O)cc(O)c21 [Hydroxyalizarin, reference compound]

Source: publication PMC5343495 (Scientific Reports, 2017)
